Experimental data as given in patent US20250236589A1, “THERAPEUTIC PHENETHYLAMINE COMPOSITIONS AND METHODS OF USE” (Cybin IRL Limited, priority 2022, published 2025).

System: bdnf, homer1, Egr2, cFos mRNA (frontal cortex)
Assay: Brain markers of neuroplasticity, gene expression in frontal cortex
Assay type: in vivo, mouse
Description: To evaluate the effects of I-1 on brain markers of neuroplasticity, male C57BL/6J mice were dosed as described in Table 10.
On Day 4, the animals were euthanized 2 hours post-dose. The left frontal cortex was dissected and stored in RNAlater.
Data were log transformed and analyzed by one-way analysis of variance. Each treatment was compared to vehicle by multiple comparisons. […] Moreover, increased homer1 expression, which is associated with the formation of postsynaptic scaffolds that cluster and colocalize NMDAR and mGluR was observed (FIG. 57C); and increased Egr2 expression, a […] that has been proposed to be a marker for psychedelic activation of 5-HT2A receptors (Gonzalez-Maeso et al., Transcriptome fingerprints distinguish hallucinogenic and nonhallucinogenic 5-hydroxytryptamine 2A receptor agonist effects in mouse somatosensory cortex. J Neurosci. 2003; 23(26), 8836-43) was observed (FIG. 57D). Upregulation of bdnf, a neurotrophin that regulates the survival and growth of neurons and influences synaptic efficiency and plasticity, was also observed (FIG. 57A).

[1] = 2 h after fourth dose of 0.3 mg/kg s.c. (group C) vs vehicle
[2] = 2 h after single 3 mg/kg s.c. (group B) vs vehicle

COc1cc(SC(F)(F)F)c(OC)cc1CCN [Compound I-1, 2-(2,5-dimethoxy-4-((trifluoromethyl)thio)phenyl)ethan-1-amine]
Increased expression: Egr2 mRNA expression [1] | homer1 mRNA expression [1] | Egr2 (krox20) mRNA expression [2] | bdnf mRNA expression [2] | cFos mRNA expression [2] | homer1 mRNA expression [2]
